Here are results for eight molecules from patent publication US20220112204A1, “SUBSTITUTED DIHYDROPYRANOPYRIMIDINE COMPOUNDS AS KRAS INHIBITORS” (ACCUTAR BIOTECHNOLOGY INC., priority 2020, published 2022).

Like-named read-outs stand apart in the source and are kept apart here. Some results are limits rather than exact numbers.

The target of experiment [1] is T1, KRAS-G12C mutant (Homo sapiens, UniProt P01116, G12C). Description: Gel shift assay (SDS-PAGE) for covalent modification of KRAS G12C. It counts as binding. As to conditions: 0.5 μM compound, 1 μM GDP-bound KRAS G12C, 25° C., 5 minutes, shift indicative of covalent cysteine conjugation. As for the experimental part:
0.5 μM compounds were incubated with 1 μM GDP-bound untagged KRAS (G12C or wild type) proteins at 25° C. for 5 minutes in 40 μl reaction buffer (50 mM Tris, pH 7.5, 100 mM NaCl, 1 mM MgCl2, 1 mM DTT). The reactions were quenched with 10 μI SDS-PAGE sample loading buffer (250 mM Tris-HCl, pH 6.8, 10% SDS, 0.5% bromophenol blue, 50% glycerol and 50 mM DTT) and then analyzed via SDS-PAGE using 4%-20% gradient polyacrylamide gel followed by Coomassie blue stain.
FIG. 1 illustrates mobility change of KRAS-G12C mutant or wild type proteins on SDS-PAGE after 5 minutes of coincubation at 25° C. with exemplary compounds of the present disclosure, indicative of covalent cysteine conjugation.
Table 3 summarizes molecular weight shift of KRAS-G12C mutant on SDS-PAGE after 5 mins of coincubation at 25° C. with exemplary compounds of the present disclosure, indicative of covalent cysteine conjugation.

The target of experiment [2] is T1, KRAS-G12C mutant. The experiment can be described thus: TR-FRET assay of SOS1-assisted KRAS GDP/GTP exchange. It counts as biochemical. The method, then: GDP form of 6*His tagged KRAS-G12C was diluted to 40 nM and incubated with 8 nM LanthaScreen™ Elite Terbium-anti-HIS Antibody (Thermo, catalog number PV5863) in reaction buffer containing 20 mM Tris, pH 7.5, 100 mM NaCl, 1 mM DTT, 0.1% Tween20, 0.05% BSA, 2% DMSO, 1 mM MgCl2. After 1 hour-incubation at 4° C., proteins were placed in 384 well plate (PerkinElmer, PROXIPLATE-384 PLUS). Then compounds with different concentrations were added to the proteins. BODIPY labeled GTP (Thermo, catalog number G12411) and SOS-1 (or reaction buffer as control) were then added to reactions at 200 nM and 1 μM to trigger the exchange of GDP to BODIPY-GTP. TR-FRET emission signals were determined at 520 nm and 620 nm on a Envision® Multilabel Plate Reader (PerkinElmer) using a 337 nm laser as light source. All data were analyzed and plotted using Graph Pad Prism software (version 8.0.1). Raw TR-FRET data were converted to percentage of inhibition (relative to DMSO) using the following equations: […]
b) For a given test compound concentration X:
Signal (X)=Emission ratio (SOS-1 & GTP)—Emission ratio (buffer & GTP)
c) Percentage of inhibition at concentration X=[1−Signal(X)/Signal (DMSO)]*100%
The […] values were determined by nonlinear regression of plots of [inhibitor] vs. percentage of inhibition with variable slope. Table 4 summarizes inhibition of SOS1-assisted GDP/GTP exchanging activity of KRAS-G12C mutant with exemplary compounds of the present disclosure.

For experiment [3], the system named is phospho-ERK1/2 (Thr202/Tyr204) in MIA PaCa-2 cell line. The experiment can be described thus: pERK and ERK Western blot analysis, MIA PaCa-2. As to conditions: Homo sapiens. It counts as cell-based. As for the experimental part:
MIA PaCa-2 (ATCC), NCI-H358 (ATCC), NCI-H23 (ATCC), SW837 and A549 (ATCC) cells were plated in 24-well plates at 2×10^5cells/well in RPMI growth medium containing 10% FBS and 1× Penicillin Streptomycin. They were then incubated at 37° C. overnight. The following day, the test compound was administered to the cells by using 1000× compound stock solution prepared in DMSO at various concentrations. After administration of the compound, the cells were then incubated at 37° C. for 4 hours. Upon completion, the cells were washed with PBS and protein was collected in Laemmli sample buffer (1×; VWR International). Proteins in cell lysate were separated by SDS-PAGE and transferred to Odyssey nitrocellulose membranes (Licor) with iblot® dry blotting transfer system (ThermoFisher). Nonspecific binding was blocked by incubating membranes with Intercept Blocking Buffer (Licor) for 1 hour at room temperature with gentle shaking. The membranes were then incubated overnight at 4° C. with primary antibodies rabbit anti-phospho p44/42 MAPK (Erk1/2) (1:2,000, Cell Signaling, 4370) and mouse anti-p44/42 MAPK (Erk1/2) (1:1,000, Cell Signaling, 4696) diluted in Intercept Blocking Buffer containing 0.1% Tween 20. After washing 3 times with TBS-T, the membranes were incubated with IRDye® 800CW goat anti-rabbit IgG (1:20,000, Licor) or IRDye® 680CW goat anti-mouse IgG (1:20,000, Licor) for 1 hour. After TBS-T washes, membranes were rinsed in TBS and scanned on Odyssey® CLx Imaging System (Licor). The bands were quantified using Image Studio™ Software (Licor).

The test system of the next experiment is MIA PaCa-2 cell line. Description: 3D cell growth assay (CellTiter-Glo), MIA PaCa-2. In kind it is cell-based. The conditions noted are these: Homo sapiens, MIA PaCa-2, 144 h, 6 days, read-out: 3D growth inhibition GI50. The method, then: MIA PaCa-2 (ATCC), NCI-H358 (ATCC), NCI-H23 (ATCC), SW837 and A549 (ATCC) cells were plated in round bottom 96-well spheroid microplates (Corning, 4520) at 3000 cells/well in 90 ul of RPMI growth medium containing 10% FBS and 1% Penicillin Streptomycin. Cells were incubated at 37° C. overnight. The following day, the test compound was administered to the cells by using 10× compound stock solution prepared in growth medium at various concentrations. After administration of the compound, cells were then incubated at 37° C. for 6 days. Before CellTiter-Glo assay, the plates were equilibrated at room temperature for approximately 10 minutes. 100 ul of CellTiter-Glo® Reagent (Promega, G7573) was added to each well. The plates were then incubated at room temperature for 10 minutes and luminescence was recorded by EnSpire plate reader (PerkinElmer). Table 6 illustrates growth inhibition (G150) by exemplary compounds 1-10 of the present disclosure in a MIA PaCa-2 cell line 6 days after administration in 3D cell culture. A: >0.1 nM and <1 nM; B: >=1 nM and <10 nM; C: >=10 nM and <100 nM; D: >100 nM.

[4] abbreviates: MIA PaCa-2 cell line, 4 hours after incubation, read-out: 2D pERK IC50.
[5] abbreviates: MIA PaCa-2 cell line, 3D cell culture.

For `C=C(F)C(=O)N1CCN(c2nc(OC[C@@H]3CCCN3C)nc3c2CO[C@H](c2cccc4cccc(Cl)c24)C3)C[C@@H]1CC#N` [Compound 18, 2-((S)-4-((S)-7-(8-chloronaphthalen-1-yl)-2-(((S)-1-methylpyrrolidin-2-yl)methoxy)-7,8-dihydro-5H-pyrano[4,3-d]pyrimidin-4-yl)-1-(2-fluoroacryloyl)piperazin-2-yl)acetonitrile], the “KRAS-G12C molecular weight shift” value at KRAS-G12C mutant [1] was “Yes”. For the same molecule, the IC50 at KRAS-G12C mutant [2] was 78 nM; in experiment [3] (MIA PaCa-2, MiaPaCa2, KRAS G12C, 4 hours, read-out: pERK IC50) it was 21.9 nM; in experiment [3] (setting [4]), 10 to 100 nM. Also, the GI50 was 1 to 10 nM with MIA PaCa-2 cell line (setting [5]) and 7.3 nM in the experiment on MIA PaCa-2 cell line (MiaPaCa2, KRAS G12C, 3D).
For `C=C(F)C(=O)N1CCN(c2nc(OCC34CCCN3CCC4)nc3c2C(C)OC(c2cccc4cccc(Cl)c24)C3)C[C@@H]1CC#N` (stereo partly drawn) [Compound 59, 2-((2S)-4-(7-(8-chloronaphthalen-1-yl)-5-methyl-2-((tetrahydro-1H-pyrrolizin-7a(5H)-yl)methoxy)-7,8-dihydro-5H-pyrano[4,3-d]pyrimidin-4-yl)-1-(2-fluoroacryloyl)piperazin-2-yl)acetonitrile], the “KRAS-G12C molecular weight shift” value on KRAS-G12C mutant [1] is recorded as “Yes”. Also, the IC50 against KRAS-G12C mutant [2] was 60 nM; in experiment [3] (setting [4]), 10 to 100 nM. For the same molecule, the GI50 with MIA PaCa-2 cell line (setting [5]) fell in the range of 1 to 10 nM.
In the case of `C=C(F)C(=O)N1CCN(c2nc(OCC3(CN4CCCC4)CC3)nc3c2CO[C@H](c2cccc4cccc(Cl)c24)C3)C[C@@H]1CC#N` (single isomer, unassigned) [Compound 73], the “KRAS-G12C molecular weight shift” value at KRAS-G12C mutant [1] is recorded as “Yes”. The IC50 against KRAS-G12C mutant [2] was 112 nM; in experiment [3] (setting [4]), 10 to 100 nM. Besides, the GI50 with MIA PaCa-2 cell line (setting [5]) lay in the range of 10 to 100 nM.
Turning to `C=C(F)C(=O)N1CCN(c2nc(OC[C@@]34CCCN3C[C@H](F)C4)nc3c2COC(c2cccc4cccc(Cl)c24)C3)C[C@@H]1CC#N` (stereo partly drawn) [Compound 62, 2-((2S)-4-(7-(8-chloronaphthalen-1-yl)-2-(((2R,7aS)-2-fluorotetrahydro-1H-pyrrolizin-7a(5H)-yl)methoxy)-7,8-dihydro-5H-pyrano[4,3-d]pyrimidin-4-yl)-1-(2-fluoroacryloyl)piperazin-2-yl)acetonitrile], the “KRAS-G12C molecular weight shift” value on KRAS-G12C mutant [1] is “Yes”. The IC50 at KRAS-G12C mutant [2] was 40 nM; in experiment [3] (setting [4]) it was 1 to 10 nM. The GI50 in the experiment on MIA PaCa-2 cell line (setting [5]) is 0.1 to 1 nM.
The like results for `C=C(F)C(=O)N1CCN(c2nc(OCC3(CN4CCCC4)CC3)nc3c2CO[C@@H](c2cccc4cccc(Cl)c24)C3)C[C@@H]1CC#N` (single isomer, unassigned) [Compound 72] were, in that order, “No”, 11600 nM, over 100 nM and over 100 nM.
For `C=C(F)C(=O)N1CCN(c2nc(OCC34CCCN3CCC4)nc3c2[C@H](C)O[C@H](c2cccc4cccc(C)c24)C3)C[C@@H]1CC#N` [Compound 66, 2-((S)-1-(2-fluoroacryloyl)-4-((5S,7S)-5-methyl-7-(8-methylnaphthalen-1-yl)-2-((tetrahydro-1H-pyrrolizin-7a(5H)-yl)methoxy)-7,8-dihydro-5H-pyrano[4,3-d]pyrimidin-4-yl)piperazin-2-yl)acetonitrile], in that order: “Yes”, 30 nM, 10 to 100 nM and 1 to 10 nM.
For `C=C(F)C(=O)N1CCN(c2nc(OCC3(CN4CCCC4)CC3)nc3c2COC(c2cccc4cccc(Cl)c24)C3)C[C@@H]1CC#N` (mixture of isomers) [Compound 71, 2-((2S)-4-(7-(8-chloronaphthalen-1-yl)-2-((1-(pyrrolidin-1-ylmethyl)cyclopropyl)methoxy)-7,8-dihydro-5H-pyrano[4,3-d]pyrimidin-4-yl)-1-(2-fluoroacryloyl)piperazin-2-yl)acetonitrile], in that order: “Yes”, 209 nM, 10 to 100 nM and 10 to 100 nM.
For `C=C(F)C(=O)N1CCN(c2nc(OC[C@@]34CCCN3C[C@H](F)C4)nc3c2CO[C@@H](c2cccc4cccc(Cl)c24)C3)C[C@@H]1CC#N` (single isomer, unassigned) [Compound 63], on KRAS-G12C mutant [1], the “KRAS-G12C molecular weight shift” value is “No”. For the same molecule, the IC50 against KRAS-G12C mutant [2] was 6930 nM; in experiment [3] (setting [4]) it was over 100 nM. For the same molecule, the GI50 in the experiment with MIA PaCa-2 cell line (setting [5]) lay in the range of 10 to 100 nM.
